The results in this text go back to ChEMBL document CHEMBL1201862, “PubChem BioAssay data set” (2004).

Active and inactive are the calls of the source.

The nature of assay [1]: HEp-2 cell cytotoxicity, dose response, cytotoxicity control for RSV inhibitor project, HTS (AID 2410). It is filed as functional. The note with it: human respiratory syncytial virus.
Assay [2] addresses T1, Delta-type opioid receptor (Homo sapiens, UniProt P41143). Kind of assay: HTS Image-Based Screen for Antagonists of the DOR Receptor. [Related pubchem assays (depositor defined):AID1777, AID1785, AID1786, AID2133]. It is filed as functional.
The target in a further assay is Mu-type opioid receptor (Homo sapiens, UniProt P35372). Kind of assay: HTS Image-Based Screen for Agonists of the MOR Receptor. [Related pubchem assays (depositor defined):AID1777, AID1785, AID1786, AID2133]. Format: functional.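 Note: imaging of beta-arrestin GFP recruitment into spots after receptor activation.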
The target in assay [3] is T1, Delta-type opioid receptor. Description: HTS Image-Based Screen for Agonists of the DOR Receptor. [Related pubchem assays (depositor defined):AID1777, AID1786, AID2133]. Format: functional.
Assay [4] can be described thus: microbe, parasite or virus in culture. It is filed as functional. The note with it: Mycobacterium tuberculosis.
Assay [5] concerns the target T2, Kappa-type opioid receptor (Homo sapiens, UniProt P41145). Format: functional.
A further assay deals with Beta-galactosidase (Escherichia coli, UniProt Q8VNN2). Format: functional.
For assay [6], the target named is T2, Kappa-type opioid receptor. Format: functional. The source holds these as a separate data set.
In assay [7] the target is T3, Short transient receptor potential channel 4 (Mus musculus, UniProt Q9QUQ5).
T3 sequence (Q9QUQ5 whole entry): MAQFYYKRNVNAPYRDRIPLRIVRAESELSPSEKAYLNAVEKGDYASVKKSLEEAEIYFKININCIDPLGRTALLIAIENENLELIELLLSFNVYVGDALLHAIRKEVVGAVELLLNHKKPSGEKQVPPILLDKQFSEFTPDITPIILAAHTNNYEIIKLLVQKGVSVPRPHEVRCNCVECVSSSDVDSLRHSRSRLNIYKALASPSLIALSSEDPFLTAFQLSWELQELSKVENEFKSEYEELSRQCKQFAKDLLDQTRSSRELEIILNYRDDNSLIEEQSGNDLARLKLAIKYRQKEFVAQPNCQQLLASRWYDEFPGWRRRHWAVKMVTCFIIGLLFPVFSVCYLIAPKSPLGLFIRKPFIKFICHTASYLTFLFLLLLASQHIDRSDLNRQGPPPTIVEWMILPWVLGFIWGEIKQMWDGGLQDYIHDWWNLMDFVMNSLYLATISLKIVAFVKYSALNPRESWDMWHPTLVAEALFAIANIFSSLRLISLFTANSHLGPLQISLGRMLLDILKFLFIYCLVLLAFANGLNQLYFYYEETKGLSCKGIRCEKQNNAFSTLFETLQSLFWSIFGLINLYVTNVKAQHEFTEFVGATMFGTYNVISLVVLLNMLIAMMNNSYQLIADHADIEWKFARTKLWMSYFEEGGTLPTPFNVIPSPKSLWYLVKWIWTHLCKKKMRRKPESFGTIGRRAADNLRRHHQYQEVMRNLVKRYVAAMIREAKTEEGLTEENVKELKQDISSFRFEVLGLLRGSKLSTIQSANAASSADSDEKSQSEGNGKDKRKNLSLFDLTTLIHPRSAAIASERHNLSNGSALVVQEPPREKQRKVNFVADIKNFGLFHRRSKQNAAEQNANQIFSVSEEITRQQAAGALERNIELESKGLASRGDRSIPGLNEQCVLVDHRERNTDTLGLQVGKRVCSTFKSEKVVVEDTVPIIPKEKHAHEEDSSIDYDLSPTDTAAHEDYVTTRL
Description: mouse TRPC4 channel activators, dose response, cell-based, HEK293 TRPC4/mu-opioid, Fluo-4 calcium (AID 434937). Format: functional.

The nature of assay [8]: Shn3 3'UTR reporter inhibitors, dose response, cell-based, Clone20 osteoblasts, firefly luciferase, cherry-picked (AID 624132).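 Note: firefly luciferase luminescence from reporter carrying the Shn3 3'UTR in osteoblasts.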 It is filed as functional.
Assay [9] is described as follows: HepG2 cell cytotoxicity, dose response, cytotoxicity control for Shn3 inhibitor project, CellTiter-Glo, cherry-picked (AID 624134). It is filed as functional, cell-based. On the technique in general: ATP-based viability assays read luminescence as a measure of living cells.
For assay [10], the target named is T4, Histone-lysine N-methyltransferase NSD2 (Homo sapiens, UniProt O96028).
T4 sequence (O96028 whole entry): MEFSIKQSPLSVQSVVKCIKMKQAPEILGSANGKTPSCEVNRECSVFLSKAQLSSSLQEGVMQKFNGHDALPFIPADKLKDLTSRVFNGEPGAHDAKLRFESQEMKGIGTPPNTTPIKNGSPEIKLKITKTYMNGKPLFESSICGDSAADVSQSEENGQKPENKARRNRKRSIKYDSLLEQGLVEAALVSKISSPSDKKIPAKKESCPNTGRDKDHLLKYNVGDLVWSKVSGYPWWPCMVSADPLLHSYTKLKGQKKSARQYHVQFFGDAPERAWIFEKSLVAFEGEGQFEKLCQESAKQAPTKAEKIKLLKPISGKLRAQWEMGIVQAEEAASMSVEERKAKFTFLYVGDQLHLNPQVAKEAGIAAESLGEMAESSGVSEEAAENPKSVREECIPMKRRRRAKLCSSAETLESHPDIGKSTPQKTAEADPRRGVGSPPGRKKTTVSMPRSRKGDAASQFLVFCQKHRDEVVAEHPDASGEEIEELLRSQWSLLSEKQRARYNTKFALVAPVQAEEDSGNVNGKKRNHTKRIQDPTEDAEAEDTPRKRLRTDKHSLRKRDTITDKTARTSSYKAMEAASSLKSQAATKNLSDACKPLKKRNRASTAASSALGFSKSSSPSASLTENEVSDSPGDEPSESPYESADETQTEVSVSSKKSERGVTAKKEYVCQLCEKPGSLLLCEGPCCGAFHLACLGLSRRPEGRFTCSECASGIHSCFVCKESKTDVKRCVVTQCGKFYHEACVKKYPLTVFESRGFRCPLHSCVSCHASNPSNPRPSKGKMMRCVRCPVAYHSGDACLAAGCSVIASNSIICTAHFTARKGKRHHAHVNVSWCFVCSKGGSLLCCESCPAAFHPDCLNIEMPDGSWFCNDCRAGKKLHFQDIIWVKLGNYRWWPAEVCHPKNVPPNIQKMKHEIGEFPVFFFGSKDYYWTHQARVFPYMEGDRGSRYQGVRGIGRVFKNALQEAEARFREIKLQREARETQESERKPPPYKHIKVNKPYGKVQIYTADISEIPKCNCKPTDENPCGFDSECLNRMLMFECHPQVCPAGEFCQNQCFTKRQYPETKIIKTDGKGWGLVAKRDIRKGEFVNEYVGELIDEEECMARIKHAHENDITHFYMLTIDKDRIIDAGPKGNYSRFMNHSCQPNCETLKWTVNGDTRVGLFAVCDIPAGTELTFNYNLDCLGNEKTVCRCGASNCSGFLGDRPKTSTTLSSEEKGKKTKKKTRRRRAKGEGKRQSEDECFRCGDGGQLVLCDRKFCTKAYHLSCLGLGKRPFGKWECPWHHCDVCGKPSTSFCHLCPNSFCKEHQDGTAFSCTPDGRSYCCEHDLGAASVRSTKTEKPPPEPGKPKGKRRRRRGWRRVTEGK
It is filed as biochemical.

Assay [11] has as its system HEK293. Kind of assay: cells. The note with it: Homo sapiens.
In assay [12] the test system is HEK293. Kind of assay: cells. The note with it: Homo sapiens. This is another data set of the same source.
The test system of another assay is HeLa. Description: HeLa cell cytotoxicity, dose response, cytotoxicity control for MITF activator project, CellTiter-Glo luminescence, cherry-pick samples (AID 540259). Format: functional, cell-based. The note with it: Homo sapiens.
Assay [13] concerns HEK293. Kind of assay: inhibitors of LMP1-driven NF-kB reporter, dose response, cell-based, HEK293, luciferase, cherry-pick (AID 588343). Format: functional. The note with it: Homo sapiens.
Assay [14] relates to Vero. Kind of assay: cells. Format: functional, cell-based. The note with it: Chlorocebus sabaeus.
For assay [15], the system named is Vero. Description: cells. The note with it: Chlorocebus sabaeus. It is filed as functional.
The target of assay [16] is T5, Fatty acid synthase (Homo sapiens, UniProt P49327). Description: FAS thioesterase domain inhibitors, dose response, biochemical, endpoint fluorescence intensity, uHTS hits (AID 624327).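 Note: fluorescence from hydrolysis of an O-methyl fluorescein acyl ester substrate by the enzyme.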 It is filed as functional.
Assay [17] has as its target T5, Fatty acid synthase. Kind of assay: FAS thioesterase domain inhibitors, dose response, biochemical, kinetic fluorescence intensity (AID 624326).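 Note: rate of fluorescence rise from hydrolysis of a fluorogenic O-methyl fluorescein ester substrate.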 Format: functional.
The test system of the next assay is Escherichia coli. Kind of assay: microbe, parasite or virus in culture.
A short description of assay [18]: growth suppression of PTEN-null colon cells, dose response, cell-based, HCT116 PTEN knockout (AID 1047).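 Note: HCT116 colon tumor cells with PTEN knocked out; cells exposed to compound for 60 hours before readout; potency for loss of cell viability measured by luminescence.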 It is filed as functional.
A short description of assay [19]: growth suppression of beta-catenin-knockout colon cells, dose response, cell-based, HCT116, human colon tumor (AID 1045).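 Note: HCT116 colon tumor cells with beta catenin knocked out; cells exposed to compound for 60 hours.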 It is filed as functional.

T1 sequence (P41143 whole entry): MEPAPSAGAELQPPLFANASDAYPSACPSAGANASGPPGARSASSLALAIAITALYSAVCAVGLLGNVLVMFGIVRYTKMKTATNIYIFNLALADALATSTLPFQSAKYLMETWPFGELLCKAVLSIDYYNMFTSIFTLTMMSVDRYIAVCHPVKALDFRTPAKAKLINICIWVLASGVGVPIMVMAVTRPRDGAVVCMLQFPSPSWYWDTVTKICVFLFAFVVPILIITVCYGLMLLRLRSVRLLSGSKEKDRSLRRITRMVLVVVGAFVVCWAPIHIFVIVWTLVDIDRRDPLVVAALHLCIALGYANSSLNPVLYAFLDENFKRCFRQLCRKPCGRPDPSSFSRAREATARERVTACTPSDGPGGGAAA
T2 sequence (P41145 whole entry): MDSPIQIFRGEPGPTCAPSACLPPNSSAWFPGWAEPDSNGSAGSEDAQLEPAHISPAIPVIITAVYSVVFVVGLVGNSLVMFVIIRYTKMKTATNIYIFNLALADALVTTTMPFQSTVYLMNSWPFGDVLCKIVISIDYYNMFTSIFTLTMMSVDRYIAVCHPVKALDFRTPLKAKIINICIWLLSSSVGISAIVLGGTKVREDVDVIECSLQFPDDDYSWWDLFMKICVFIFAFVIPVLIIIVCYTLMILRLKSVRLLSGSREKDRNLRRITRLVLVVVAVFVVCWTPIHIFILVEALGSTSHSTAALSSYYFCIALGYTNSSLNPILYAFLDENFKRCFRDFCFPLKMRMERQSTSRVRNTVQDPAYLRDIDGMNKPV
T5 sequence (P49327 whole entry, the tested form may be a part): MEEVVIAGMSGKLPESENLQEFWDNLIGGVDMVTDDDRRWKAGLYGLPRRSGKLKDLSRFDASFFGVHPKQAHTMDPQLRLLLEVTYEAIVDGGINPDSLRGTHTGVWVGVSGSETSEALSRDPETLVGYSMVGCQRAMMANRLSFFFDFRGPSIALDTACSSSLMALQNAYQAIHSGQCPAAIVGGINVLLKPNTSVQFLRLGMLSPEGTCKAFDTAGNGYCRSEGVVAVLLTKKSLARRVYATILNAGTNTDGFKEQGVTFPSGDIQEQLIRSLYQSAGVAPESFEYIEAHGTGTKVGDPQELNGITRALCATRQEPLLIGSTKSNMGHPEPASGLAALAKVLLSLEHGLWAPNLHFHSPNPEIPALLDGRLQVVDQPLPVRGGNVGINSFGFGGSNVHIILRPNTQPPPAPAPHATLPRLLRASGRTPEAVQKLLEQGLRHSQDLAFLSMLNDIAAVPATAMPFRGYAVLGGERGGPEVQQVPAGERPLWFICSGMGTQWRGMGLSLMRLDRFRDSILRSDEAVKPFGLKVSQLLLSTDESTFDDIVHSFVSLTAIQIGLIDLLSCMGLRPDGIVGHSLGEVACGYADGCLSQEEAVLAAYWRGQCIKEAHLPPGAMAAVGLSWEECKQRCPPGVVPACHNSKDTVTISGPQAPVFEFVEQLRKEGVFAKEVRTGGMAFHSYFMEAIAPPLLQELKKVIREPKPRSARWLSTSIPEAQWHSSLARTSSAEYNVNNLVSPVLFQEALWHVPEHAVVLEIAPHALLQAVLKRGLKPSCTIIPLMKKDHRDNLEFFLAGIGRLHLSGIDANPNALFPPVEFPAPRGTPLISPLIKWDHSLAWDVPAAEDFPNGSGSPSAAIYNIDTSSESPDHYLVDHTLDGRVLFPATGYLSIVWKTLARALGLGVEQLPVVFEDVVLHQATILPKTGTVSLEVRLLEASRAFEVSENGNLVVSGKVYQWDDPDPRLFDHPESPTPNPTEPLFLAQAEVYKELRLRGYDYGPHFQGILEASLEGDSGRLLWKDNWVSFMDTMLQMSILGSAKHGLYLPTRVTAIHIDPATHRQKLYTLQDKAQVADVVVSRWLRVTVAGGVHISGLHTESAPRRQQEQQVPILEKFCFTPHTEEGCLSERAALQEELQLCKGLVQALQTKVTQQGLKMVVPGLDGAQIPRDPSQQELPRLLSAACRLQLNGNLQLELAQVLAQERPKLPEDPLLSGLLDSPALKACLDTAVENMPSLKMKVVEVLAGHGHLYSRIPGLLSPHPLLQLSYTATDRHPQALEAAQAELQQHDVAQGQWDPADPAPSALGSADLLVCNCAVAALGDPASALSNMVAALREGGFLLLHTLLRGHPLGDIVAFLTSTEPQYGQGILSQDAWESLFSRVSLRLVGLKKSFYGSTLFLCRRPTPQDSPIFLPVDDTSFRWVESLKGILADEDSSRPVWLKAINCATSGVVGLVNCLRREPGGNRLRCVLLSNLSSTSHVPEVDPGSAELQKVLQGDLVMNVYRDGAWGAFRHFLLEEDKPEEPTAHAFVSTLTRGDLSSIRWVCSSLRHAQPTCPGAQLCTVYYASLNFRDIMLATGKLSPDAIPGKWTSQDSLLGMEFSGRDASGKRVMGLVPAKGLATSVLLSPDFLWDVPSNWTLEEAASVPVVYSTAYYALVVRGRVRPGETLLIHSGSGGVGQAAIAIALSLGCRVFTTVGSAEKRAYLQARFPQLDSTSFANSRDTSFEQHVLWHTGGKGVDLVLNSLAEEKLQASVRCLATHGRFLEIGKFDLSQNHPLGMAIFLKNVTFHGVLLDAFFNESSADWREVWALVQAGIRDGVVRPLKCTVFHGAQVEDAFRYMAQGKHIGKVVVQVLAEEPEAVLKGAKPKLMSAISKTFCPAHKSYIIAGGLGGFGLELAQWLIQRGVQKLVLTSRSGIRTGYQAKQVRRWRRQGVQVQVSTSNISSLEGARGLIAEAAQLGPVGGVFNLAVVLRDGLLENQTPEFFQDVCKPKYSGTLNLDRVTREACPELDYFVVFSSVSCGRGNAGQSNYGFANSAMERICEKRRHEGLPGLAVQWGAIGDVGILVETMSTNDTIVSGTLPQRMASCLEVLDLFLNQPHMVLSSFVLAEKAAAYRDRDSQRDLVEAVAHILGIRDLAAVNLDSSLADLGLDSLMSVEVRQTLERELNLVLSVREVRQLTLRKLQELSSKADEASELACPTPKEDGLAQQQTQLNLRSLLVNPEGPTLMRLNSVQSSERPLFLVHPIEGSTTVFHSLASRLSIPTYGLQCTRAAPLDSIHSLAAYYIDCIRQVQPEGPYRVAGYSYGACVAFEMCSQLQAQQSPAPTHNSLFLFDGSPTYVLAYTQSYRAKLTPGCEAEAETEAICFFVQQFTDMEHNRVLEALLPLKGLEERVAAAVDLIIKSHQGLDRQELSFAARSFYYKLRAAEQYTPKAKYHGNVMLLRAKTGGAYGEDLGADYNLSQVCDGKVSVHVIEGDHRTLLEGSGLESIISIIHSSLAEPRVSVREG
Beta-galactosidase, sequence (Q8VNN2 whole entry): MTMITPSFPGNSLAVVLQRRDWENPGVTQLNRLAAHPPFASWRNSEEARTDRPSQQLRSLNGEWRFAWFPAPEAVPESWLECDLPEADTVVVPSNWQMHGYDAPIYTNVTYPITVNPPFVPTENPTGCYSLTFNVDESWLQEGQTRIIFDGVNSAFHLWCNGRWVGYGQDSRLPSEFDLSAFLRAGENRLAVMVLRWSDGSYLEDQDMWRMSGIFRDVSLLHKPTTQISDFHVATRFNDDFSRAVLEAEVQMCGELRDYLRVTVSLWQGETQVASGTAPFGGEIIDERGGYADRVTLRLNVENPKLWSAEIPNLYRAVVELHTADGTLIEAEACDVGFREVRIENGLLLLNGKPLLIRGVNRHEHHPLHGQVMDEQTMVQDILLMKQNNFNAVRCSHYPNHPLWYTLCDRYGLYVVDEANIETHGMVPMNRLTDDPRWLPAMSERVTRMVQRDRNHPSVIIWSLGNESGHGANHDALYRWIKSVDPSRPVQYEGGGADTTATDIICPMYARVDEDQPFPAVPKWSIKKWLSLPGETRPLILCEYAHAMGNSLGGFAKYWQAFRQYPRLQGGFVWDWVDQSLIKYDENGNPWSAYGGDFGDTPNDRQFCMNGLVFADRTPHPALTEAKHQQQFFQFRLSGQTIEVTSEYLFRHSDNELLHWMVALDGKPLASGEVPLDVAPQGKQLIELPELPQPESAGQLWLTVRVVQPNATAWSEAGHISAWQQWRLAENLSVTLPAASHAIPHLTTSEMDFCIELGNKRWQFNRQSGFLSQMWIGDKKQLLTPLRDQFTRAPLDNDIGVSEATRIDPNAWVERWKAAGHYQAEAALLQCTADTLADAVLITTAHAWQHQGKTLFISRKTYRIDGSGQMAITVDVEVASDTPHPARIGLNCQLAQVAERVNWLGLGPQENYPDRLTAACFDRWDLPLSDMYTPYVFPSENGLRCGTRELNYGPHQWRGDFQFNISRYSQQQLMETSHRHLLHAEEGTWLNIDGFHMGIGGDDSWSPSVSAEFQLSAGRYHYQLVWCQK
Mu-type opioid receptor, sequence (P35372 whole entry): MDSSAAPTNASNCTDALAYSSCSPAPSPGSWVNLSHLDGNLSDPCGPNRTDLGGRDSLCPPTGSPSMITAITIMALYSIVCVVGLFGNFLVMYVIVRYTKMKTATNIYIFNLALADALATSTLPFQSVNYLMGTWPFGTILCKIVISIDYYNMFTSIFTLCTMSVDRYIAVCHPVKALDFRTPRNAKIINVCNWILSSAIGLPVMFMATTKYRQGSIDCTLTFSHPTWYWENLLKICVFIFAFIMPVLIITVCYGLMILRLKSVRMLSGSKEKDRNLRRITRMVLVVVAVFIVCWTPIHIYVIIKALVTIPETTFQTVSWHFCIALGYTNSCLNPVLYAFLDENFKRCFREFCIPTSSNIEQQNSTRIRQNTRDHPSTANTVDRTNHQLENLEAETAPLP

On to `COc1cc(OC)c(OC)cc1CCC(C)NCCC(c1ccccc1)c1ccccc1` (stereo not given), for which the CC50 in assay [1] is 14.6 µM (active); in assay [4], 13.9 µM (active). Moreover, the results for the IC50 in assay [2], in assay [5] and in assay [6] were 24.4 µM (inactive), 10.9 µM (active) and above 32 µM, respectively. Besides, the EC50 is > 32 µM (inactive) at Mu-type opioid receptor; > 32 µM (inactive) in [3]; > 31.5 µM (inactive) at Beta-galactosidase; 6.68 µM (active) in [7]; > 59.6 µM (inactive) in the assay on HEK293 [11]; > 59.6 µM (inactive) with HEK293 [12]. In addition, the AC50 in assay [8] was 3.99 µM (active); in assay [9], 8.98 µM (active); in [10] it was 15.8 µM (active).

As for `CC(C)Cc1cc(C(=O)Nc2ccc(Br)cc2)no1`, in the assay on HeLa, the AC50 was 113 µM (active).

Turning to `O=C(NC(Cc1c[nH]c2ccccc12)C(=O)Nc1ccc(F)c([N+](=O)[O-])c1)c1cccs1` (stereo not given), the values for the CC50 (in assay [1]; in the assay on Vero [15]) were 13.1 µM (active) and 18.5 µM (active), respectively. In the assay with HEK293 [13], the AC50 was 1.37 µM (active). Besides, the IC50 was 22.4 µM (active) in the assay on Vero [14], 7.53 µM (active) at Fatty acid synthase [16], 3.78 µM (active) on Fatty acid synthase [17] and 10.2 µM (active) in “cells”.

Regarding `CCc1ccc(NC(=O)C(S)=NC2CCCCC2)cc1`, in the assay on HeLa, the concentration at half-maximal activity (AC50) is 182 µM (active).

As for `O=C(c1cccc(COc2cccc3ccccc23)c1)N1CCCC1`, the CC50 in assay [1] is 21.3 µM (active); in the assay on Vero [15] it was > 25 µM (active). Further, the half-inhibitory concentration (IC50) with Vero [14] is > 25 µM (active); in “cells” it was > 50 µM (active).

Take `Cc1ccccc1OCC(=O)Nc1ccc(S(=O)(=O)Nc2onc(C)c2C)cc1`: the AC50 in the assay with Escherichia coli is 39.2 µM (active).

Take `COc1cccc(CN(C(=O)Cc2c[nH]c3ccccc23)C(C(=O)NC2CCCCC2)c2ccc(C)o2)c1` (stereo not given): the figures for the EC50 in assay [18] and in assay [19] were 19.9 µM (active) and 22.3 µM (active), respectively. Besides, in the assay with Escherichia coli, the AC50 is 44.4 µM (active).

As for `Fc1ccc(-c2csc3ncnc(Nc4ccc(N5CCOCC5)cc4)c23)cc1`, the EC50 with HEK293 [11] and in the assay on HEK293 [12] was > 59.6 µM (inactive) each time.

Consider `Fc1ccccc1CSc1ncnc2c1ncn2C1CCCO1` (stereo not given), for which the IC50 in the assay on Vero [14] was 8.43 µM (active).

For the molecule `CC(C)(C)c1nn2cnnc2n(/N=C/c2cccc3ccccc23)c1=O`, the AC50 in the assay on Escherichia coli was 38.5 µM (active).

In general, IC50 refers to the concentration that gives 50% inhibition. The term EC50 denotes the concentration that produces a half-maximal response. One may read the AC50 as the concentration giving half of the maximal activity seen.
